Data taken from US6780863B1, “Bis-basic compounds with tryptase-inhibitory activity” (Boehringer Ingelheim Pharma GmbH & Co. KG, priority 1999, dated 2004).

Each molecule was assayed against T1, rh beta tryptase (Homo sapiens, UniProt Q15661) (assay: tryptase inhibition test (cleavage of N-p-tosyl-Gly-Pro-Lys-para-nitroaniline, p-nitroaniline measured at 405 nm)). Details: Tris HCl buffer pH 7.4 with calcium and heparin; substrate 0.6 mM; 5 min pre-incubation, 5 min incubation, 37° C.
T1 construct: purchased Promega
Assay type: biochemical
Method: The compounds according to the invention are characterised by their tryptase-inhibiting activity. This ability to inhibit tryptase was investigated using the test described below.
The measurement is carried out in Tris HCl buffer (100 mM), which additionally contains calcium (5 mM) and heparin (100 mg/ml), at pH 7.4. The standard used is rh beta tryptase which may be obtained commercially from Promega, for example. The substrate used is N-p-tosyl—Gly-Pro-Lys-para-nitroaniline in a concentration of 0.6 mM. The substrate is digested with tryptase to form p-nitroaniline which can be measured at 405 nm. Usually, an incubation period of 5 minutes and an incubation temperature of 37° C. are chosen. The enzyme activity used is 0.91 U/ml. The measurements are carried out in an Autoanalyser (Cobas Bio) made by Hofmann LaRoche. The potential inhibitory substances are used in concentrations of 10 μM in the screening, the inhibition of the tryptase being given in percent. The IC50 (concentration at which 50% of the enzyme activity is inhibited) is determined at over 70% inhibition. After 5 minutes' pre-incubation of the potential inhibitory substances, the substrate is added to start the reaction, the formation of p-nitroaniline being taken as a measurement of the enzyme activity after 5 minutes, after testing the linearity.

T1 sequence (Q15661 31-275): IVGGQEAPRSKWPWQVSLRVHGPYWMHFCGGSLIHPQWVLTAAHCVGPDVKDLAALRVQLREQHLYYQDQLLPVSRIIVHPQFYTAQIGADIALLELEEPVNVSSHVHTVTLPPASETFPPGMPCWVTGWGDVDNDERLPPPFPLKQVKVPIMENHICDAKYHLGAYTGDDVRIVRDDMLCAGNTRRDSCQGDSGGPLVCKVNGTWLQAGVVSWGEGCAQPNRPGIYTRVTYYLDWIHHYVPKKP

| Structure (SMILES) | IC50 |
| --- | --- |
| NCc1ccc(OCc2cccc(CNCCc3cccc(NCc4cccc(COc5ccc(CN)cc5)c4)c3)c2)cc1 [Example 10] | 35 nM |
| NCc1ccc(OCc2cccc(CNCc3cccc(CNCc4cccc(COc5ccc(CN)cc5)c4)c3)c2)cc1 [Example 15] | 23 nM |
| CCCCN(CCCCCCN(CCCC)Cc1cccc(COc2ccc(C(=N)N)cc2)c1)Cc1cccc(COc2ccc(C(=N)N)cc2)c1 [Example 30] | 6.8 nM |
| CC(C)(CCC(C)(C)NCc1cccc(COc2ccc(C(=N)N)cc2)c1)NCc1cccc(COc2ccc(C(=N)N)cc2)c1 [Example 27] | 1.7 nM |
| N=C(N)c1ccc(OCc2cccc(CNCC3CCC(CNCc4cccc(COc5ccc(C(=N)N)cc5)c4)CC3)c2)cc1 (centres unmarked) [Example 26] | 0.8 nM |
| NCc1ccc(OCc2cccc(CNCC3CCCC(CNCc4cccc(COc5ccc(CN)cc5)c4)C3)c2)cc1 (centres unmarked) [Example 20] | 7.1 nM |
| N=C(N)c1ccc(OCc2cccc(CN(Cc3ccc(CN(Cc4cccc(COc5ccc(C(=N)N)cc5)c4)C4CC4)cc3)C3CC3)c2)cc1 [Example 62] | 41 nM |
| N=C(N)c1ccc(OCc2ccc(CN3CCC(C4CCN(Cc5ccc(COc6ccc(C(=N)N)cc6)cc5)CC4)CC3)cc2)cc1 [Example 64] | 1.1 nM |
| CN(Cc1ccc(CN(C)Cc2cccc(COc3ccc(CCN)cc3)c2)cc1)Cc1cccc(COc2ccc(CCN)cc2)c1 [Example 35] | 31.6 nM |
| NCc1ccc(OCc2cccc(CNCC3CCC(CNCc4cccc(COc5ccc(CN)cc5)c4)CC3)c2)cc1 (centres unmarked) [Example 11] | 4 nM |
| N=C(N)c1ccc(OCc2ccc(CNCCCCCCNCc3ccc(COc4ccc(C(=N)N)cc4)cc3)cc2)cc1 [Example 63] | 0.74 nM |
| CC(C)(CCC(C)(C)NCc1cccc(COc2ccc(CN)cc2)c1)NCc1cccc(COc2ccc(CN)cc2)c1 [Example 14] | 13 nM |
| CC(C)(CCCCC(C)(C)NCc1cccc(COc2ccc(C(=N)N)cc2)c1)NCc1cccc(COc2ccc(C(=N)N)cc2)c1 [Example 33] | 2.5 nM |
| N=C(N)c1ccc(OCc2cccc(CNCCOCCNCc3cccc(COc4ccc(C(=N)N)cc4)c3)c2)cc1 [Example 39] | 12 nM |
| CC1(NCc2cccc(COc3ccc(C(=N)N)cc3)c2)CCC(C(C)(C)NCc2cccc(COc3ccc(C(=N)N)cc3)c2)CC1 (centres unmarked) [Example 40] | 5 nM |
| CN(CCCCCCN(C)Cc1cccc(COc2ccc(C(=N)N)cc2)c1)Cc1cccc(COc2ccc(C(=N)N)cc2)c1 [Example 24] | 3.1 nM |

| Structure (SMILES) | IC50 |
| --- | --- |
| CC1(NCc2cccc(COc3ccc(CN)cc3)c2)CCC(C(C)(C)NCc2cccc(COc3ccc(CN)cc3)c2)CC1 (centres unmarked) [Example 18] | 10.7 nM |
| N=C(N)c1ccc(OCc2cccc(CNCCCCCCCNCc3cccc(COc4ccc(C(=N)N)cc4)c3)c2)cc1 [Example 23] | 1.1 nM |
| N=C(N)c1ccc(OCc2ccc(CNCc3ccc(CNCc4ccc(COc5ccc(C(=N)N)cc5)cc4)cc3)cc2)cc1 [Example 65] | 0.59 nM |
| CN(CCCCCCN(C)Cc1cccc(COc2ccc(CN)cc2)c1)Cc1cccc(COc2ccc(CN)cc2)c1 [Example 31] | 13 nM |
| N=C(N)c1ccc(OCc2cccc(CNCc3ccc(CNCc4cccc(COc5ccc(C(=N)N)cc5)c4)cc3)c2)cc1 [Example 29] | 1.7 nM |
| N=C(N)c1ccc(OCc2cccc(CNCc3cccc(CNCc4cccc(COc5ccc(C(=N)N)cc5)c4)c3)c2)cc1 [Example 28] | 5.3 nM |
| NCCc1ccc(OCc2cccc(CN3CCC(C4CCN(Cc5cccc(COc6ccc(CCN)cc6)c5)CC4)CC3)c2)cc1 [Example 42] | 30.9 nM |
| NCc1ccc(OCc2cccc(CNCc3ccc(CNCc4cccc(COc5ccc(CN)cc5)c4)cc3)c2)cc1 [Example 16] | 12 nM |
| N=C(N)c1ccc(OCc2cccc(COCc3ccc(COCc4cccc(COc5ccc(C(=N)N)cc5)c4)cc3)c2)cc1 [Example 56] | 19 nM |
| N=C(N)c1ccc(OCc2cccc(CN3CCC(C4CCN(Cc5cccc(COc6ccc(C(=N)N)cc6)c5)CC4)CC3)c2)cc1 [Example 34] | 0.8 nM |
| NCc1ccc(OCc2cccc(CN3CCC(C4CCN(Cc5cccc(COc6ccc(CN)cc6)c5)CC4)CC3)c2)cc1 [Example 68] | 2.5 nM |
| NCc1ccc(OCc2cccc(CNC3CCC(CC4CCC(NCc5cccc(COc6ccc(CN)cc6)c5)CC4)CC3)c2)cc1 (centres unmarked) [Example 19] | 10 nM |
| N=C(N)c1ccc(OCc2cccc(CNCCCCCNCc3cccc(COc4ccc(C(=N)N)cc4)c3)c2)cc1 [Example 17] | 1.4 nM |
| N=C(N)c1ccc(OCc2cccc(CNCCCCCCNCc3cccc(COc4ccc(C(=N)N)cc4)c3)c2)cc1 [Example 25] | 1.2 nM |
| NCc1ccc(OCc2cccc(CNCCCCCNCc3cccc(COc4ccc(CN)cc4)c3)c2)cc1 [Example 7] | 4.3 nM |
| N=C(N)c1ccc(OCc2cccc(CNCCCCC(NCc3cccc(COc4ccc(C(=N)N)cc4)c3)C(=O)O)c2)cc1 (centres unmarked) [Example 32] | 32.4 nM |
